Our source for the IC50 values is US20230023559A1, “ARYLMETHYLENE HETEROCYCLIC COMPOUNDS AS KV1.3 POTASSIUM SHAKER CHANNEL BLOCKERS” (D. E. Shaw Research, LLC, priority 2019, published 2023).

Molecules are shown by their SMILES.

The target in the assay is T1, Kv1.3 potassium channel (Homo sapiens, UniProt P22001).
T1 construct: expressed in transfected cells
T1 sequence (P22001 whole entry): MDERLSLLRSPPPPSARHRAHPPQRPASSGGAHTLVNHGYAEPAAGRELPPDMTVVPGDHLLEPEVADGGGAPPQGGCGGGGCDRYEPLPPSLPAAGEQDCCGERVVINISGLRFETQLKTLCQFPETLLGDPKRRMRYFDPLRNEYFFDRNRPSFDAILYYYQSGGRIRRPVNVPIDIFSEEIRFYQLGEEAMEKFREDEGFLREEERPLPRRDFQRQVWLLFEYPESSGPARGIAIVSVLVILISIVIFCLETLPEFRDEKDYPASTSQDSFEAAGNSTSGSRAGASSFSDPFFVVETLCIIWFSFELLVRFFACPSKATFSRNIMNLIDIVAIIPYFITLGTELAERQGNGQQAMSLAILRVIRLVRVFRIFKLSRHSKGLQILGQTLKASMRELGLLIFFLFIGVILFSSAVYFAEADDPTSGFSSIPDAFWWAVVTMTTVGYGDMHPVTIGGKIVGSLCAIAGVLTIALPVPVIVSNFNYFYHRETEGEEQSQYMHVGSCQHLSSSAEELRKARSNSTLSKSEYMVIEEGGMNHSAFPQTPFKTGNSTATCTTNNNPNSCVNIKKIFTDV
Nature of the assay: Kv1.3 potassium channel blocker activity, automated whole-cell patch clamp (Patchliner). Particulars: CHO-K1 cells stably expressing Kv1.3; whole cell current inhibition; read-out: Kv1.3_IC50. The assay is classed as cell-based. The protocol:
The assay described below is used to evaluate the disclosed compound's activities as Kv1.3 potassium channel blockers.
CHO-K1 cells stably expressing Kv1.3 were grown in DMEM containing 10% heat-inactivated FBS, 1 mM Sodium Pyruvate, 2 mM L-Glutamine and G418 (500 μg/ml).
All compounds were dissolved in DMSO at 30 mM.
The currents were evoked by applying 100 ms depolarizing pulses from −90 mV (holding potential) to +40 mV were applied with 0.1 Hz frequency. […] 10 second breaks were used between pulse trains (see Table A below).
Data were sampled at 10 kHz without filtering. Passive leak currents were subtracted online using a P/4 procedure (HEKA Elektronik Dr. Schulze GmbH). […] Total compound incubation time before the next pulse train was not longer than 10 seconds. Peak current inhibition was observed during compound equilibration.
(In general: The patch-clamp technique gives a direct electrical read-out from membranes.)
`N[C@@H](c1cc(Cl)c(C2CCC2)cc1O)C1CCN(C(=O)[C@H](O)CO)CC1` [Compound 288, (2R)-1-[4-[(R)-amino(5-chloro-4-cyclobutyl-2-hydroxyphenyl)methyl]piperidin-1-yl]-2,3-dihydroxypropan-1-one Trifluoroacetic Acid]: the IC50 (in general, the point on the concentration scale where inhibition reaches its midpoint) is below 30 µM.

Take `Nc1cnc(C(=O)N2CCC([C@@H](N)c3cc(Cl)c(Cl)cc3O)CC2)cn1` [Compound 307, 2-[(R)-amino[1-(5-aminopyrazine-2-carbonyl)piperidin-4-yl]methyl]-4,5-dichlorophenol trifluoroacetic acid]: the IC50 was below 10 µM.

Take `N[C@@H](c1cc(Cl)c(Cl)cc1O)[C@H]1CCC(=O)NC1` (single isomer, unassigned; diastereoisomer 1) [Compound 38, 5-(amino(4,5-dichloro-2-hydroxyphenyl)methyl)piperidin-2-one trifluoroacetic acid diastereoisomer 1]: the IC50 was below 10 µM.

With `Cc1cc(O)c([C@H](N)C2CCN(C(=O)c3ccc4c(c3)NC(=O)C4)CC2)cc1Cl` [Compound 263, 6-[4-[(R)-amino (5-chloro-2-hydroxy-4-methylphenyl)methyl]piperidine-1-carbonyl]-1,3-dihydroindol-2-one trifluoroacetic acid], the IC50 is below 0.5 µM.

Take `CNC(c1cc(Cl)c(Cl)cc1O)C1CCN(C(=O)C(O)CO)CC1` (stereo not shown) [Compound 184, 1-[4-[(4,5-dichloro-2-hydroxyphenyl)(methylamino)methyl]piperidin-1-yl]-2,3-dihydroxypropan-1-one Trifluoroacetic Acid]: the IC50 is below 10 µM.

As for `N[C@@H](c1c(O)ccc(Cl)c1Cl)C1CCN(C(=O)[C@H](O)CO)CC1` [Compound 187, (2R)-1-[4-[(R)-amino(2,3-dichloro-6-hydroxyphenyl)methyl]piperidin-1-yl]-2,3-dihydroxypropan-1-one Trifluoroacetic Acid], the IC50 is below 10 µM.

Consider `Cc1cc(O)c([C@H](N)C2CCN(C(=O)c3ccc4c(c3)NC(=O)CC4)CC2)cc1Cl` [Compound 273, 7-[4-[(R)-amino (5-chloro-2-hydroxy-4-methylphenyl)methyl]piperidine-1-carbonyl]-3,4-dihydro-1H-quinolin-2-one trifluoroacetic acid], for which the IC50 was below 10 µM.

Take `N[C@H](c1cc(Cl)c(Cl)cc1O)C1CCN(C(=O)[C@@H]2CCNC2)CC1` (single isomer, unassigned) [Compound 84]: the IC50 was below 10 µM.

For the compound `N[C@H](c1cc(Cl)c(Cl)cc1O)[C@H]1CCN(C(=O)[C@H](O)CO)C1` (single isomer, unassigned; isomer 1) [Compound 308], the IC50 is below 10 µM.

For the compound `Cc1cc(O)c([C@H](N)C2CCN(C(=O)c3ccc4[nH]c(=O)[nH]c4c3)CC2)cc1Cl` [Compound 256, 5-[4-[(R)-amino (5-chloro-2-hydroxy-4-methylphenyl)methyl]piperidine-1-carbonyl]-1,3-dihydro-1,3-benzodiazol-2-one trifluoroacetic acid], the IC50 is below 0.5 µM.

`Cc1cc(O)c([C@H](N)C2CCN(C(=O)c3ccc4c(c3)CCC(=O)N4)CC2)cc1Cl` [Compound 259, 6-[4-[(R)-amino (5-chloro-2-hydroxy-4-methylphenyl)methyl]piperidine-1-carbonyl]-3,4-dihydro-1H-quinolin-2-one trifluoroacetic acid]: the IC50 was below 0.5 µM.

Consider `N[C@@H](c1cc(Cl)c(Cl)cc1O)C1CCN(C(=O)C2CNCC2(F)F)CC1` (stereo partly drawn) [Compound 113, (4-((R)-amino(4,5-dichloro-2-hydroxyphenyl)methyl)piperidin-1-yl)(4,4-difluoropyrrolidin-3-yl)methanone], for which the IC50 is below 10 µM.

As to `O=C1CCCN1C(c1cc(Cl)c(Cl)cc1O)C1CCNCC1` (stereo not shown) [Compound 29, 1-((4,5-dichloro-2-hydroxyphenyl)(piperidin-4-yl)methyl)pyrrolidin-2-one Trifluoroacetic Acid], the IC50 is below 10 µM.
